{"source": "the NIST ThermoML archive (doi:10.1016/j.fluid.2005.01.007)", "key": {"[1]": {"conditions": "Liquid; for mass density: 298.15 K, 101.33 kPa"}, "[2]": {"experiment": "refractive index (Na D-line) (dimensionless)", "conditions": "298.15 K; 101.33 kPa; Liquid; Standard Abbe refractometry"}}, "note": "Numbers after ± are expanded uncertainties."}
{"smiles": "CC(C)CC(C)(C)C", "note": "[2,2,4-trimethylpentane]", "values": [{"measurement": "mass density", "setting": "[1]", "result": "687.72 ± 0.81", "unit": "kg/m3"}, {"measurement": "vapor or sublimation pressure", "setting": "[1]; 372.33 K", "result": "101.32 ± 0.55", "unit": "kPa"}, {"measurement": "refractive index", "setting": "[2]", "result": "1.38887 ± 0.00072"}]}
{"smiles": "CC(C)=O", "note": "[acetone]", "values": [{"measurement": "mass density", "setting": "[1]", "result": "785.47 ± 0.61", "unit": "kg/m3"}, {"measurement": "vapor or sublimation pressure", "setting": "[1]; 329.26 K", "result": "101.32 ± 0.55", "unit": "kPa"}, {"measurement": "refractive index", "setting": "[2]", "result": "1.35597 ± 0.00072"}]}
{"smiles": "CCO", "note": "[ethanol]", "values": [{"measurement": "mass density", "setting": "[1]", "result": "785.09 ± 0.62", "unit": "kg/m3"}, {"measurement": "vapor or sublimation pressure", "setting": "[1]; 351.44 K", "result": "101.32 ± 0.55", "unit": "kPa"}, {"measurement": "refractive index", "setting": "[2]", "result": "1.35926 ± 0.00072"}]}
